The source of these data is PubChem BioAssay (NCI).

Holding throughout (test): NCI tumour cell line growth inhibition, 48 h
Assay [1] has as its system HCT-116 colon.
Assay [2] relates to NCI-H460 lung.
Assay [3] deals with UACC-257 melanoma.
Assay [4] relates to HT29 colon.
Assay [5] relates to RPMI-8226 leukemia.
The subject of assay [6] is K-562 leukemia.
Assay [7] deals with SK-MEL-5 melanoma.
Assay [8] has as its system SF-268 CNS.
The test system of assay [9] is MDA-MB-231 breast.
Assay [10] deals with EKVX NSCLC.

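1) Cells in 96-well plates. 2) Compound, 48 h, 5 concentrations. 3) Linear interpolation between surrounding doses. 4) Unreached endpoint = highest concentration. GI50 = concentration required for 50% inhibition of growth. TGI denotes the concentration required for complete inhibition of growth.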

`NC(N)=NCCCCCNc1noc(Cc2c[nH]c3cc(Br)ccc23)n1`: the GI50 in assay [1] was 9.78 µM; in assay [2], 12.4 µM; in [3] it was 14.6 µM; in assay [4], 19.5 µM; in assay [5] it was 6.78 µM; in assay [6], 9.4 µM. Also, the GI50 was 4.52 µM in [7], 3.54 µM in assay [8] and 8.05 µM in assay [9]. For the same compound, the TGI in assay [1] was 37 µM; in [2], 43.3 µM; in assay [3], 80.3 µM; in assay [4], > 100 µM; in [5] it was 47.1 µM; in assay [6], 38.6 µM. Further, the TGI is 16.2 µM in assay [7], 27.8 µM in assay [8] and 30.2 µM in assay [9].
In the case of `Cc1cc2c(cc1Cl)SC(=Nc1ccc(Cl)cc1)N(S(=O)(=O)c1ccccc1)S2(=O)=O`, the GI50 in assay [1] was 9.78 µM; in assay [2], 11.8 µM; in [3], 17.4 µM; in [5] it was 2.67 µM; in assay [10], 15.1 µM; in [6] it was 9.19 µM. Moreover, the figures for the GI50 in [7], in assay [8] and in assay [9] were 6.82 µM, 13.8 µM and 2.79 µM, respectively. Further, the TGI in [1] turned out to be 21.5 µM; in [2], 29.2 µM; in [3], 34.9 µM; in assay [5], 14.7 µM; in assay [10], 29.3 µM; in assay [6], 58.2 µM. In addition, the TGI in [7] was determined as 19.2 µM; in assay [8], 34.8 µM; in assay [9], 16 µM.
For the compound `O=C(CSC(c1ccccc1)c1ccccc1)N/N=C/c1ccc(Cl)cc1Cl`, the GI50 in assay [1] is 18.5 µM; in assay [2], 20.1 µM; in assay [3], 23.1 µM; in assay [5], 15.6 µM; in assay [10] it was 43.6 µM; in assay [6] it was 19 µM. The figures for the GI50 in assay [7], in assay [8] and in [9] were 18.1 µM, 36.8 µM and 22.5 µM, respectively. Also, the TGI in [1] was 44.4 µM; in assay [2] it was 49.8 µM; in [3], 68.3 µM; in assay [5] it was 41.8 µM; in assay [10] it was > 100 µM; in assay [6] it was 96.6 µM. The results for the TGI in assay [7], in [8] and in assay [9] were 32.7 µM, > 100 µM and > 100 µM, respectively.
For the compound `Cn1cc(C2=C(c3cn(CCCCCN)c4ccccc34)C(=O)NC2=O)c2ccccc21`, the GI50 in assay [1] was 5.85 µM; in assay [2] it was 9.73 µM; in assay [3], 23.1 µM; in [4], 7.39 µM; in assay [5], 9.24 µM; in assay [6], 9.14 µM. Besides, the GI50 in assay [7] is 7.46 µM; in [8], 12.5 µM; in assay [9] it was 17.1 µM. Besides, the TGI in assay [1] was > 16.7 µM; in assay [2], > 25 µM; in assay [3], > 25 µM; in assay [4] it was > 22.8 µM; in [5], > 25 µM; in [6], > 25 µM. Moreover, the TGI in [7] is > 19.7 µM; in [8], > 25 µM; in assay [9] it was > 25 µM.
Consider `CCc1ccccc1NC(=O)c1sc2nc3c(cc2c1N)C(=O)CCC3`, for which the GI50 is 0.512 µM in assay [1]; 0.367 µM in assay [2]; 27.6 µM in [3]; 0.372 µM in assay [4]; 0.782 µM in assay [5]; 0.275 µM in assay [6]. For the same compound, the GI50 in assay [7] was 0.329 µM; in [8], 11.9 µM; in assay [9] it was 1.49 µM. Also, the TGI is > 100 µM in [1]; > 100 µM in assay [2]; > 100 µM in assay [3]; 29.5 µM in assay [4]; > 30.9 µM in assay [5]; > 100 µM in [6]. In addition, the TGI in [7], in assay [8] and in assay [9] was > 100 µM in each case.
As for `O=C(Nc1ccc(-n2cc(-c3ccncc3)c(-c3ccc(Cl)c(O)c3)n2)cc1)Nc1ccc(Cl)c(C(F)(F)F)c1`, the GI50 in assay [1] is 1.29 µM; in [2], 1.7 µM; in assay [3], 1.51 µM; in assay [10], 3.05 µM; in assay [6], 1.89 µM; in [7], 1.53 µM. Besides, the GI50 in assay [8] is 1.65 µM; in [9] it was 1.66 µM. The TGI was 2.72 µM in [1]; 3.4 µM in assay [2]; 3.4 µM in assay [3]; 14.6 µM in assay [10]; 7.37 µM in assay [6]; 2.95 µM in assay [7]. For the same compound, the TGI in assay [8] came to 3.87 µM; in assay [9] it was 3.31 µM.
As for `CN(CCCNC(=O)Cc1ccc2ccc3cccc4ccc1c2c34)CCCNc1cc(-c2ccc3ccccc3c2)nc2ccccc12`, the GI50 in [1] is 0.333 µM; in assay [2] it was 1.65 µM; in [3], 1.8 µM; in assay [4] it was 0.511 µM; in assay [5] it was 1.22 µM; in [7] it was 1.64 µM. In addition, the GI50 in assay [8] was 1.43 µM; in assay [9], 1.54 µM. Also, the TGI in assay [1] was 1.28 µM; in assay [2], 3.61 µM; in [3], 3.56 µM; in assay [4], 1.69 µM; in assay [5] it was 4.11 µM; in assay [7], 3.01 µM. Also, the TGI in [8] was 2.91 µM; in assay [9] it was 3.04 µM.
As to `COc1cc2c(cc1O)C1Cc3ccc(OC)c(O)c3C(C2)N1C` (stereo not drawn), the TGI in assay [1], in assay [2], in [3], in assay [4], in [5] and in assay [10] was > 100 µM each time. Besides, the TGI in assay [7], in assay [8] and in [9] was > 100 µM throughout.
As for `N#C/C(=C/N1CCN(C(=O)c2ccco2)C1=S)C(=O)c1ccccc1`, the GI50 in assay [1] was 9.12 µM; in [2], 9.52 µM; in assay [4] it was 30.5 µM; in [5], 5.56 µM; in assay [10] it was 17.8 µM; in assay [6], 5.51 µM. Also, the GI50 is 8.25 µM in assay [7], 31.2 µM in assay [8] and 13.7 µM in [9]. For the same compound, the TGI in assay [1] is 57 µM; in assay [2], > 100 µM; in [4], > 100 µM; in [5], > 100 µM; in assay [10], 48 µM; in assay [6], > 100 µM. In addition, the figures for the TGI in assay [7], in [8] and in assay [9] were 22.2 µM, 93.3 µM and 40.8 µM, respectively.
For `Cc1ccc(C2(O)CC(c3ccc([N+](=O)[O-])o3)=NN2C(=O)COc2ccc(Cl)cc2)cc1` (stereo not drawn), the TGI in assay [1] is 22.2 µM; in [2] it was 20.7 µM; in assay [3], 17 µM; in assay [4], > 38.8 µM; in assay [5], > 21.2 µM; in assay [10], 18.8 µM. The TGI in assay [6] was > 100 µM; in [7], 6.6 µM; in [8], 28.1 µM.
For the compound `C[C@]12CC[C@@H]3c4ccc(O)cc4CC[C@H]3[C@@H]1CC[C@@H]2NS(=O)(=O)c1cccc(F)c1`, the GI50 is 2.63 µM in assay [1]; 2.72 µM in [2]; 4.07 µM in [3]; 3.2 µM in assay [4]; 3.65 µM in assay [5]; 3.22 µM in [6]. In addition, the values for the GI50 in [7], in assay [8] and in assay [9] were 1.66 µM, 4.1 µM and 3.64 µM, respectively. In addition, the TGI in assay [1] was found to be 7.33 µM; in assay [2] it was 7.18 µM; in assay [3], 16.3 µM; in assay [4], 10.1 µM; in assay [5] it was 19.6 µM; in assay [6], 15.2 µM. Besides, the TGI in assay [7] worked out at 3.15 µM; in assay [8] it was 16 µM; in [9], 13.6 µM.
`Cc1cc(S(=O)(=O)N/N=C(\Sc2cc(Cl)c(C)cc2S(N)(=O)=O)c2ccc(Cl)cc2)c(Cl)cc1Cl`: the GI50 was 79.4 µM in assay [1]; > 100 µM in [2]; 44.5 µM in [3]; 27.3 µM in assay [5]; > 100 µM in assay [10]; 67.7 µM in assay [6]. In addition, the GI50 in [7] was > 100 µM; in assay [8], > 100 µM; in [9] it was 34.2 µM. Also, the TGI in assay [1] is > 100 µM; in assay [2], > 100 µM; in assay [3], > 100 µM; in [5], 86.4 µM; in assay [10], > 100 µM; in assay [6], > 100 µM. The TGI in assay [7], in [8] and in assay [9] was > 100 µM throughout.
For `C=C1C(=O)O[C@H]2/C=C(/C)C3=CC(=O)[C@@](C)(C[C@@H](OC(=O)/C(C)=C\C)C12)O3` (stereo partly drawn), the TGI in assay [1] is 1.11 µM; in assay [2] it was 11.8 µM; in [3], 5.69 µM; in [4], 1.21 µM; in [10] it was 6.23 µM; in assay [6], 1.84 µM. Besides, the TGI is > 35.3 µM in [7], > 46.5 µM in assay [8] and 11.5 µM in assay [9].
Turning to `CC(C)(C=O)CC(C#N)/C(=N\NC(N)=O)C(=O)Nc1ccccc1C(N)=O` (stereo not drawn), the TGI in assay [1], in assay [2], in assay [3], in assay [4], in assay [5] and in assay [10] was > 100 µM in each case. Further, the TGI in assay [6], in [7] and in [8] was > 100 µM each time.
For `COc1ccc(C2c3cc(OC)c(OC)cc3C(Cc3ccc([N+](=O)[O-])cc3)C2c2ccc([N+](=O)[O-])cc2)cc1OC` (stereo not drawn), the TGI in [1], in [2], in [3], in assay [4], in assay [5] and in assay [10] was > 100 µM in each case. Further, the TGI in assay [6], in assay [7] and in assay [8] was > 100 µM in each case.
Take `CC12CCCCC1(C)C2Sc1ccccc1` (stereo not drawn): the TGI was > 100 µM in assay [1]; > 100 µM in assay [2]; > 100 µM in assay [3]; > 100 µM in assay [4]; 40.3 µM in assay [5]; > 96.8 µM in assay [10]. In addition, the TGI in assay [6] is 19.9 µM; in [7] it was > 63.5 µM; in assay [8], > 100 µM.
Regarding `Cc1cc(N/N=C/c2nc(-c3ccc(Br)cc3)oc2C)c2cc(Br)ccc2n1`, the GI50 in [1] is 3.52 µM; in assay [3], 6.9 µM; in [4], 3.14 µM; in assay [5] it was 2.37 µM; in assay [10] it was 19.3 µM; in [7], 13.4 µM. Further, the GI50 in assay [8] was 6.89 µM; in assay [9], 2.95 µM. Further, the TGI came out at 12.2 µM in assay [1]; 21.9 µM in assay [3]; 13.7 µM in [4]; 6.39 µM in assay [5]; 38.5 µM in assay [10]; 26.1 µM in assay [7]. The figures for the TGI in assay [8] and in [9] were 46.2 µM and 10.1 µM, respectively.
With `COc1ccc(OC)c2c(/C=C/c3ccc(N(C)C)cc3)ccnc12`, the TGI in [1] is 8.11 µM; in [2] it was > 10 µM; in [3] it was > 10 µM; in assay [4] it was > 10 µM; in assay [10], > 10 µM; in [6], > 10 µM. Besides, the TGI in [7], in assay [8] and in [9] was > 10 µM each time.
Regarding `COc1cc(C)c2c(c1C)OC(=O)c1c(C)c(Cl)c(O)c(C=O)c1O2`, the TGI is 54.9 µM in assay [1]; 40.3 µM in assay [2]; 61.5 µM in [3]; 70.3 µM in assay [4]; 33.4 µM in assay [5]; 26.4 µM in assay [10]. Also, the TGI in assay [6] is 45.6 µM; in [7], > 100 µM; in assay [8], 65.1 µM.
With `CC1(C)O/C(=C\c2ccccc2)C(=O)/C(=C/c2ccccc2)O1`, the TGI in assay [1] is > 100 µM; in [2], > 100 µM; in assay [3] it was 71.7 µM; in assay [4], > 100 µM; in assay [5], 54.6 µM; in [10] it was > 100 µM. Besides, the TGI in assay [6] was > 100 µM; in assay [7], 27.9 µM; in [8], > 100 µM.
